“And” between values parts separate entries of the source, which are not always exact repeats. Equal values may be shown once. Read-outs that look alike come from different tables or passages of the source.
Columns and labels:
DiMT protein [1] = experiment: DiMT enzyme activity, kinetics and substrate specificity (MTase-Glo methyltransferase assay); assay type: biochemical, Dirofilaria immitis; details: for DiMT catalytic activity for methylation of the substrate: SAM as co-substrate; for Vmax / Km: Michaelis-Menten fit; for Km: other substrate fixed
DiMT protein [2] = assay type: biochemical, Dirofilaria immitis
D. immitis microfilariae = experiment: In vitro efficacy against live D. immitis microfilariae (motility, completely immotile %); assay type: cell-based, Dirofilaria immitis; details: for Completely Immotile Microfilariae (%): single replicate
[3] = DiMT 90 ng/μL, SAM 40 μM, substrate 300 μM

OCCS [2-Mercaptoethanol]
Mean RLU (DiMT protein [1]; [3]): -2592.7 RLU
DiMT catalytic activity for methylation of the substrate (DiMT protein [1]): did not depict catalytic activity

NCCc1ccc(O)c(O)c1 [Dopamine]
Kcat (S^-1) (DiMT protein [1]; DiMT 90 ng/μL): 241.28 S^-1
Mean RLU (DiMT protein [1]; [3]): 5806.3 RLU
Vmax (DiMT protein [1]; DiMT 90 ng/μL): 1549.0 nmol/µg/min and 1549.0 ± 21.4 nmol/µg/min
Km (DiMT protein [1]; DiMT 90 ng/μL): 106 ± 6.2 µM
DiMT catalytic activity for methylation of the substrate (DiMT protein [1]): readily catalyzed the methylation
Mean RLU (DiMT protein [1]; dopamine 50 uM, SAM (30 µM)): 114.3 RLU
RLU (single experiments) (DiMT protein [1]; dopamine 50 uM, SAM (30 µM)): 106.0 RLU and 141.0 RLU and 96.0 RLU
Mean RLU (DiMT protein [1]; dopamine 100 uM, SAM (30 µM)): 391.3 RLU
Mean RLU (DiMT protein [1]; dopamine 200 uM, SAM (30 µM)): 1186.3 RLU
RLU (single experiments) (DiMT protein [1]; dopamine 200 uM, SAM (30 µM)): 958.0 RLU and 965.0 RLU and 1636.0 RLU
Mean RLU (DiMT protein [1]; dopamine 300 uM, SAM (30 µM)): 2161.3 RLU
RLU (single experiments) (DiMT protein [1]; dopamine 300 uM, SAM (30 µM)): 1950.0 RLU and 1857.0 RLU and 2677.0 RLU
Mean RLU (DiMT protein [1]; dopamine 400 uM, SAM (30 µM)): 2830.0 RLU
RLU (single experiments) (DiMT protein [1]; dopamine 400 uM, SAM (30 µM)): 2877.0 RLU and 2606.0 RLU and 3007.0 RLU
Mean RLU (DiMT protein [1]; dopamine 500 uM, SAM (30 µM)): 3483.0 RLU
RLU (single experiments) (DiMT protein [1]; dopamine 500 uM, SAM (30 µM)): 2900.0 RLU and 4023.0 RLU and 3526.0 RLU

NCCc1c[nH]cn1 [Histamine]
Mean RLU (DiMT protein [1]; [3]): 167.3 RLU
DiMT catalytic activity for methylation of the substrate (DiMT protein [1]): did not depict catalytic activity

CO[C@H]1/C=C/O[C@@]2(C)Oc3c(C)c(O)c4c(O)c(cc(O)c4c3C2=O)NC(=O)/C(C)=C\C=C\[C@H](C)[C@H](O)[C@@H](C)[C@@H](O)[C@@H](C)[C@H](OC(C)=O)[C@@H]1C [NSC133100]
Mean Percent Inhibition (DiMT protein [2]; 100 µM): 24.8% and 27.0% and 28.5%
Mean Percent Inhibition, Average (DiMT protein [2]; 100 µM): 26.8%
Mean Percent Inhibition (DiMT protein [2]; 200 µM): 32.0% and 34.7% and 35.8%
Mean Percent Inhibition, Average (DiMT protein [2]; 200 µM): 34.1%
Mean Percent Inhibition (DiMT protein [2]; 300 µM): 33.9% and 41.0% and 42.1%
Mean Percent Inhibition, Average (DiMT protein [2]; 300 µM): 39.0%
Mean Percent Inhibition (DiMT protein [2]; 400 µM): 40.4% and 46.0%
Mean Percent Inhibition, Average (DiMT protein [2]; 400 µM): 44.1%
Mean Percent Inhibition (DiMT protein [2]; 500 µM): 51.5% and 54.8% and 55.7%
Mean Percent Inhibition, Average (DiMT protein [2]; 500 µM): 54.0%
IC50 (DiMT protein [2]; read-out: IC 50 (μM ± SEM)): 496.9 ± 2.7 µM
Mean completely Immotile (%) (D. immitis microfilariae; 15 µM, 0 h): 0%
Completely Immotile Microfilariae (%) (D. immitis microfilariae; 15 µM, 0 h): 0%
Mean completely Immotile (%) (D. immitis microfilariae; 15 µM, 24 h): 1%
Completely Immotile Microfilariae (%) (D. immitis microfilariae; 15 µM, 24 h): 0% and 1% and 2%
Mean completely Immotile (%) (D. immitis microfilariae; 15 µM, 48 h): 2.67%
Completely Immotile Microfilariae (%) (D. immitis microfilariae; 15 µM, 48 h): 1% and 3% and 4%
Mean completely Immotile (%) (D. immitis microfilariae; 15 µM, 72 h): 4.67%
Completely Immotile Microfilariae (%) (D. immitis microfilariae; 15 µM, 72 h): 3% and 5% and 6%
Mean completely Immotile (%) (D. immitis microfilariae; 15 µM, 96 h): 6.67%
Completely Immotile Microfilariae (%) (D. immitis microfilariae; 15 µM, 96 h): 5% and 7% and 8%
Mean completely Immotile (%) (D. immitis microfilariae; 15 µM, 120 h): 9.67%
Completely Immotile Microfilariae (%) (D. immitis microfilariae; 15 µM, 120 h): 7% and 10% and 12%
Mean completely Immotile (%) (D. immitis microfilariae; 25 µM, 0 h): 0%
Completely Immotile Microfilariae (%) (D. immitis microfilariae; 25 µM, 0 h): 0%
Mean completely Immotile (%) (D. immitis microfilariae; 25 µM, 24 h): 3%
Completely Immotile Microfilariae (%) (D. immitis microfilariae; 25 µM, 24 h): 2% and 3% and 4%
Mean completely Immotile (%) (D. immitis microfilariae; 25 µM, 48 h): 4.67%
Completely Immotile Microfilariae (%) (D. immitis microfilariae; 25 µM, 48 h): 3% and 5% and 6%
Mean completely Immotile (%) (D. immitis microfilariae; 25 µM, 72 h): 6.67%
Completely Immotile Microfilariae (%) (D. immitis microfilariae; 25 µM, 72 h): 5% and 7% and 8%
Mean completely Immotile (%) (D. immitis microfilariae; 25 µM, 96 h): 9.33%
Completely Immotile Microfilariae (%) (D. immitis microfilariae; 25 µM, 96 h): 7% and 10% and 11%
Mean completely Immotile (%) (D. immitis microfilariae; 25 µM, 120 h): 13.67%
Completely Immotile Microfilariae (%) (D. immitis microfilariae; 25 µM, 120 h): 10% and 16% and 15%
Mean completely Immotile (%) (D. immitis microfilariae; 50 µM, 0 h): 0%
Completely Immotile Microfilariae (%) (D. immitis microfilariae; 50 µM, 0 h): 0%
Mean completely Immotile (%) (D. immitis microfilariae; 50 µM, 24 h): 5%
Completely Immotile Microfilariae (%) (D. immitis microfilariae; 50 µM, 24 h): 4% and 5% and 6%
Mean completely Immotile (%) (D. immitis microfilariae; 50 µM, 48 h): 8%
Completely Immotile Microfilariae (%) (D. immitis microfilariae; 50 µM, 48 h): 7% and 8% and 9%
Mean completely Immotile (%) (D. immitis microfilariae; 50 µM, 72 h): 10.67%
Completely Immotile Microfilariae (%) (D. immitis microfilariae; 50 µM, 72 h): 9% and 11% and 12%
Mean completely Immotile (%) (D. immitis microfilariae; 50 µM, 96 h): 12.67%
Completely Immotile Microfilariae (%) (D. immitis microfilariae; 50 µM, 96 h): 11% and 13% and 14%
Mean completely Immotile (%) (D. immitis microfilariae; 50 µM, 120 h): 17%
Completely Immotile Microfilariae (%) (D. immitis microfilariae; 50 µM, 120 h): 14% and 19% and 18%
Mean completely Immotile (%) (D. immitis microfilariae; 75 µM, 0 h): 0%
Completely Immotile Microfilariae (%) (D. immitis microfilariae; 75 µM, 0 h): 0%
Mean completely Immotile (%) (D. immitis microfilariae; 75 µM, 24 h): 6.33%
Completely Immotile Microfilariae (%) (D. immitis microfilariae; 75 µM, 24 h): 5% and 6% and 8%
Mean completely Immotile (%) (D. immitis microfilariae; 75 µM, 48 h): 10%
Completely Immotile Microfilariae (%) (D. immitis microfilariae; 75 µM, 48 h): 9% and 10% and 11%
Mean completely Immotile (%) (D. immitis microfilariae; 75 µM, 72 h): 13%
Completely Immotile Microfilariae (%) (D. immitis microfilariae; 75 µM, 72 h): 12% and 13% and 14%
Mean completely Immotile (%) (D. immitis microfilariae; 75 µM, 96 h): 15.67%
Completely Immotile Microfilariae (%) (D. immitis microfilariae; 75 µM, 96 h): 14% and 16% and 17%
Mean completely Immotile (%) (D. immitis microfilariae; 75 µM, 120 h): 20.67%
Completely Immotile Microfilariae (%) (D. immitis microfilariae; 75 µM, 120 h): 17% and 23% and 22%
effect on microfilariae (D. immitis microfilariae; up to 120 h of culture): insignificant effect

NCC(O)c1ccc(O)cc1 (stereo not shown) [Octopamine]
fold lower DiMT activity than that of dopamine (DiMT protein [1]): 3 fold
Mean RLU (DiMT protein [1]; [3]): 1996.7 RLU
DiMT catalytic activity for methylation of the substrate (DiMT protein [1]): modest activity

NCCOP(=O)(O)O [Phosphoethanolamine]
Mean RLU (DiMT protein [1]; [3]): -1783.7 RLU
DiMT catalytic activity for methylation of the substrate (DiMT protein [1]): did not depict catalytic activity

C[S+](CC[C@H](N)C(=O)[O-])C[C@H]1O[C@@H](n2cnc3c(N)ncnc32)[C@H](O)[C@@H]1O (stereo partly drawn) [SAM, S-adenosyl-L-methionine]
Kcat (S^-1) (DiMT protein [1]; DiMT 90 ng/μL): 42.94 S^-1
Vmax (DiMT protein [1]; DiMT 90 ng/μL): 275.7 ± 3.9 nmol/µg/min
Km (DiMT protein [1]; DiMT 90 ng/μL): 104 ± 2.7 µM
Mean RLU (DiMT protein [1]; SAM 10 µM, dopamine 360 µM): 756.5 RLU
RLU (single experiments) (DiMT protein [1]; SAM 10 µM, dopamine 360 µM): 914.5 RLU and 723.5 RLU and 631.5 RLU
Mean RLU (DiMT protein [1]; SAM 20 µM, dopamine 360 µM): 2042.5 RLU
RLU (single experiments) (DiMT protein [1]; SAM 20 µM, dopamine 360 µM): 2199.5 RLU and 2145.5 RLU and 1782.5 RLU
Mean RLU (DiMT protein [1]; SAM 30 µM, dopamine 360 µM): 3090.5 RLU
RLU (single experiments) (DiMT protein [1]; SAM 30 µM, dopamine 360 µM): 2251.5 RLU and 2688.5 RLU and 4331.5 RLU
Mean RLU (DiMT protein [1]; SAM 40 µM, dopamine 360 µM): 4397.8 RLU
RLU (single experiments) (DiMT protein [1]; SAM 40 µM, dopamine 360 µM): 4459.5 RLU and 4406.5 RLU and 4327.5 RLU
Mean RLU (DiMT protein [1]; SAM 50 µM, dopamine 360 µM): 5027.5 RLU
RLU (single experiments) (DiMT protein [1]; SAM 50 µM, dopamine 360 µM): 4688.5 RLU and 5346.5 RLU and 5047.5 RLU
Mean RLU (DiMT protein [1]; SAM 60 µM, dopamine 360 µM): 4815.8 RLU
RLU (single experiments) (DiMT protein [1]; SAM 60 µM, dopamine 360 µM): 4881.5 RLU and 5382.5 RLU and 4183.5 RLU

NCCc1ccc(O)cc1 [Tyramine]
fold lower DiMT activity than that of dopamine (DiMT protein [1]): 6 fold
Mean RLU (DiMT protein [1]; [3]): 1001.7 RLU
DiMT catalytic activity for methylation of the substrate (DiMT protein [1]): modest activity
